According to patent US10188603B2, “Topical systems and methods for treating sexual dysfunction” (priority 2013, dated 2019):

Tests used:
[1] = tested on: capillary circulation of the skin; experiment: Laser Doppler circulation in five human subjects (Example 8); assay type: in vivo; settings: positive control formulation containing 0.1% methyl nicotinate
Description: This example illustrates delivery of nitric oxide formulations to five human subjects, using procedures and formulations similar to those discussed in Example 5. Each person served as their own control for the testing. A Moor Instruments Laser Doppler was used to determine circulation. […] The formulations used produce positive, almost immediate results when applied to the skin which, in these studies, was manifested by vasodilatation of the cutaneous vascular system.
For each subject, the following creams were applied: a negative control formulation (containing no NO), 0.010 gram of a 10,000 ppm NO formulation, 0.020 gram of a 10,000 ppm NO formulation, and a positive control formulation containing 0.1% methyl nicotinate. The formulations were prepared using procedures similar to those discussed in Example 1.

[2] = tested on: micro-capillary blood flow to skin; experiment: Laser Doppler capillary blood flow in humans, 10,000 ppm NO in closed chamber (Example 5); assay type: in vivo, human; settings: applied to the skin at 1/10% in alcohol
Description: The formulation used in these studies contained nitric oxide dispersed in a lipid matrix. […] Nitric oxide is a very rapid acting molecule, and these studies used a system that employed laser Doppler with a covered chamber. The formulation was placed into the chamber and then attached to the skin by an adhesive layer on the covering. This provided a stable measuring device as determined by multiple normal evaluations of the capillary blood flow without treatment of nitric oxide.
A known positive control, methyl nicotinate, was applied to the skin at a concentration of 1/10% in alcohol. […] The vascular dynamics are such that when the blood vessels dilate physical parameters follow Bernoulli's law. This states that as one increases the diameter of a tube containing a liquid to flow will increase but the pressure and the speed of the liquid will decrease. The laser Doppler device accurately measured these parameters.
The test product was labeled as 10,000 ppm NO (nitric oxide). The study participants had 100 mg of the test product applied in a closed Hilltop chamber on the forearm. […]
A Moor Instruments DRT4 Laser Doppler Blood Flow Monitor (Devon, England) was used in these studies. The laser Doppler technique measured blood flow in the microcapillaries of the skin that are close to the skin surface and the blood flow in underlying arterioles and venules that help to regulate skin temperature. […]

Compound: COC(=O)c1cccnc1 [methyl nicotinate]
- vasodilatation (laser Doppler) [1]: vasodilatation was observed
- laser Doppler response of positive control [2]: rapid response typical of the vasodilator
